Assay results reported in US9090617B1, “Agonists of Src homology-2 containing protein tyrosine phosphatase-1 and treatment methods using the same” (National Taiwan University, priority 2011, dated 2015).

Columns and labels:
Huh-7 tumors = test system: Huh-7 tumors
Method: Male NCr athymic nude mice (5-7 weeks of age) were obtained from the National Laboratory Animal Center (Taipei, Taiwan). All experimental procedures using these mice were performed in accordance with protocols approved by National Taiwan University. […] Controls received vehicle (Chen K F et al. Cancer Res. 2008; 68:6698-6707).

HCC cells = experiment: Apoptosis analysis by flow cytometry (sub-G1); assay type: cell-based; conditions: HCC cells, 24 h
Method in brief: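 HCC cells treated with compounds, harvested, fixed in 75% ethanol and stained with 20 ug/ml propidium iodide, 30 min at 37° C in the dark. Sub-G1 population measured by flow cytometry as apoptotic fraction; mean ± SD.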

VEGFR1 = target: T1, VEGFR1 (Homo sapiens, UniProt P17948); experiment: VEGFR1 activity in HUVEC cells; assay type: cell-based; conditions: 24 h
T1 construct: we tested the effect of SC-49 on the activity of VEGFR1 in HUVEC cells; endogenous in cells; host or cells: HUVEC
Description: (§1) To further investigate the effect of SC-49 on angiogenesis, we tested the effect of SC-49 on the activity of VEGFR1 in HUVEC cells.

p-STAT1 and p-STAT5 = experiment: Effect on p-STAT1 and p-STAT5; assay type: cell-based; conditions: indicated doses, 24 h
Description: as §1

SHP-1 [1] = target: T2, SHP-1 (Homo sapiens, UniProt P29350); experiment: Phosphatase activity of SHP-1 immunoprecipitated from PLC5 cells, incubated with compound in vitro; assay type: biochemical; set-up: PLC5 protein extract was incubated with anti-SHP-1 antibody in immunoprecipitation buffer overnight; endogenous in cells; host or cells: PLC5 (PLC/PRF/5); conditions: SHP-1-containing PLC5 extract, 10 or 100 nmol/L, 30 min, 4° C.
Method: PLC5 protein extract was incubated with anti-SHP-1 antibody in immunoprecipitation buffer overnight. Protein G Sepharose 4 Fast flow (GE Healthcare Bio-Science) was added to each sample, followed by incubation for 3 hours at 4° C. with rotation. […] RediPlate 96 EnzChek Tyrosine Phosphatase Assay kit (R-22067) was used for SHP-1 activity assay (Molecular Probes).

[2] = test system: p-STAT3, cyclin D1, survivin, Mc1-1; experiment: Western blot of STAT3-related proteins in HCC cells; assay type: cell-based; conditions: HCC cells, 24 h
Method: Cells were treated with various compounds at 5 and 10 μM for 24 h. Cell lysates were analyzed by western blot.
HCC cells treated with SC-43 (10 μM for 24 h) were collected with RIPA lysis buffer. Antibodies for immunoblotting such as cyclin D1 was purchased from Santa Cruz Biotechnology. Other antibodies such as survivin, phospho-STAT3 (Tyr705), STAT3, Mc1-1, SOCS1, and SOCS3 were from Cell Signaling.

Huh-7 xenograft tumor = experiment: Huh-7 xenograft with SC-59 or sorafenib and radiation; assay type: in vivo, mice
Method: (A) The effects of SC-59 and radiation on tumor growth. Each mouse was inoculated subcutaneously in the right leg with […] Huh-7 cells suspended in Matrigel. When the tumor reached a volume of 400-600 mm3, mice received vehicle, 5 Gy radiation (one fraction per day) for 4 days, or 10 mg/kg SC-59 p.o. once daily, or a combination for the duration of the study. The data points indicate the mean values (n=6) and the bars indicate the standard error. There were significant differences between the combined treatment group and the vehicle control group (*, P<0.05, **, P<0.01). (B) Left, the expression of P-STAT3 in the Huh-7 tumors was analyzed by western blot. Right, quantified data for p-STAT3 to STAT3. (C) The activity of SHP-1 in Huh-7 tumors. Values are means±SD, *, P<0.05. (D) Body weight of mice after SC-59 and RT treatment. […] The data points indicate the mean values (n=6) and the bars indicate the standard error. […] (H) Body weight of mice treated with vehicle, RT, sorafenib, and combination.
To further elucidate the molecular events responsible for this synergistic effect, we examined the expression level of p-STAT3 in the tumor extract.

SHP-1 [3] = target: T2, SHP-1; experiment: SHP-1 activity in treated HCC cells (tyrosine phosphatase assay kit); assay type: cell-based; set-up: endogenous in cells; conditions: SK-Hep1 cells
Description: The RediPlate 96 EnzChek® Tyrosine Phosphatase Assay Kit (R-22067) was used for SHP-1 activity assay (Molecular Probes, Carlsbad, Calif.). The Raf-1 kinase cascade assay kit (Upstate-Millipore, Billerica, Mass.) was used to examine the Raf-1 kinase activity. The JAK2 kinase activity kit was purchased from Reaction Biology Corp. (Malvern, Pa.).

T2 sequence (P29350 whole entry): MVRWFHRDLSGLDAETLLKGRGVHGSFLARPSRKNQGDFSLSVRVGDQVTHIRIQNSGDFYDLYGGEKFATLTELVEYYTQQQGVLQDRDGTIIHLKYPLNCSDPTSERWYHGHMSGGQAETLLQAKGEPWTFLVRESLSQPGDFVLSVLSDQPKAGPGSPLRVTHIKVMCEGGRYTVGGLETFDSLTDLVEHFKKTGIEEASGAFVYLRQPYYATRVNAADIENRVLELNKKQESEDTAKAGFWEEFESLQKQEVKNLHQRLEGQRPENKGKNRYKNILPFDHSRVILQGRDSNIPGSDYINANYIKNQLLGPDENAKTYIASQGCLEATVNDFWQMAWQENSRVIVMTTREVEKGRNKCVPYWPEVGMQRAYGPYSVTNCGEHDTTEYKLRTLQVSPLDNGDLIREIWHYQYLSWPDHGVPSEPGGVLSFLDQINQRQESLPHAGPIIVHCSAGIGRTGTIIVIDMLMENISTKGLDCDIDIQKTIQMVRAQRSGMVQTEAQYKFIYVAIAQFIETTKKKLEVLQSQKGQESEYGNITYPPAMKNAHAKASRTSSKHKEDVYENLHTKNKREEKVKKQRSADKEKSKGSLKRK
T1 sequence (P17948 27-1338): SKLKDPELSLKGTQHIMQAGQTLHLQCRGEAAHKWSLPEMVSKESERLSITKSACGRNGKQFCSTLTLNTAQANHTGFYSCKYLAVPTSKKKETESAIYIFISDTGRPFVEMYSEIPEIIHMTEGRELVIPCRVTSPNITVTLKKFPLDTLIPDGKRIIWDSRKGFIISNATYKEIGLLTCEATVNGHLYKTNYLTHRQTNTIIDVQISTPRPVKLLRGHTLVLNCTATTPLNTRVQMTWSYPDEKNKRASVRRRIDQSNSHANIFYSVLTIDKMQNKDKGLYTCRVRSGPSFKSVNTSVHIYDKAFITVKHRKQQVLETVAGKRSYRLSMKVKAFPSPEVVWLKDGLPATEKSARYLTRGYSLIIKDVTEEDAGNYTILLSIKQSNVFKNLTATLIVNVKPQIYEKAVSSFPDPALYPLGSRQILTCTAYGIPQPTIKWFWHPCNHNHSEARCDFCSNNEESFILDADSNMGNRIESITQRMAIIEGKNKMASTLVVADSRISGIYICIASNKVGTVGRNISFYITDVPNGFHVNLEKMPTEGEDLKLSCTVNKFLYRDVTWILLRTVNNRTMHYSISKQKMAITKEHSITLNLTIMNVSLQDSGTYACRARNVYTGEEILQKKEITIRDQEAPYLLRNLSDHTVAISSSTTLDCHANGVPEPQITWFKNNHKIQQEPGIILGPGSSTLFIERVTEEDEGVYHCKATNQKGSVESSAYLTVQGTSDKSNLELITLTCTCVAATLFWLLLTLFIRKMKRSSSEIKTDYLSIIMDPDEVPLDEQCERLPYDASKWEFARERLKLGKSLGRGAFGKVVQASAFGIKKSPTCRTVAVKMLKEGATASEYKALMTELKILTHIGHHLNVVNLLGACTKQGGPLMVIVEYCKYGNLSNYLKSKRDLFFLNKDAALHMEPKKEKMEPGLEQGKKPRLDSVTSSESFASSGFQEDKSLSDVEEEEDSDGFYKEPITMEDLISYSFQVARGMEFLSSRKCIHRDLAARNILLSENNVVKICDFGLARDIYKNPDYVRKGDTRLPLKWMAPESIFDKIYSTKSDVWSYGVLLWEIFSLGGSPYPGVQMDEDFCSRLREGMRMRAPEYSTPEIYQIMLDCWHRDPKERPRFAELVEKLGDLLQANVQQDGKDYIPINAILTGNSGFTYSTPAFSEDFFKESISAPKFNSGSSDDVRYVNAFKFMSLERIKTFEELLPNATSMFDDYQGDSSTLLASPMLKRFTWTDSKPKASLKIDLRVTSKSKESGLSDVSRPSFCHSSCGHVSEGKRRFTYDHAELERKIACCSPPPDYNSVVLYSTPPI

N#Cc1ccc(Oc2ccc(CNC(=O)Nc3ccc(Cl)c(C(F)(F)F)c3)cc2)cc1 [SC-49, 1-(4-chloro-3-(trifluoromethyl)phenyl)-3-(4-(4-cyanophenoxyl)benzyl)urea]
Huh-7 tumor size / growth versus control (Huh-7 tumors; 10 mg/kg/day orally): significantly reduced the growth of the Huh-7 tumour | body weight or toxicity (Huh-7 tumors; mouse, in vivo, po, 10 mg/kg/day): stable body weights | SHP-1 activity in Huh-7 tumors (Huh-7 tumors; tumor extract): enhanced the activity of SHP-1 in Huh-7 tumours | p-STAT3 in Huh-7 tumors (Huh-7 tumors; tumor extract, Western blot): down-regulated p-STAT3 in Huh-7 tumours | apoptosis (sub-G1) (HCC cells): induced more apoptotic cell death than sorafenib | activity of VEGFR1 (VEGFR1): did not affect the activity of VEGFR1 in HUVEC cells | p-STAT1 and p-STAT5 (p-STAT1 and p-STAT5): down-regulated both p-STAT1 and p-STAT5 in a dose dependent manner | phosphatase activity of SHP-1 in vitro (SHP-1 [1]): increase phosphatase activity of SHP-1 in vitro

Cc1ccc(NC(=O)Nc2ccc(Cl)c(C(F)(F)F)c2)cc1Oc1ccc(C#N)cc1 [SC-59, 1-(4-chloro-3-(trifluoromethyl)phenyl)-3-(3-(4-cyanophenoxy)-4-methylphenyl) urea]
p-STAT3 and STAT3-related proteins (Western blot) [2]: downregulated phospho-STAT3 (p-STAT3) at tyrosine 705 along with its downstream molecules | tumor growth with radiotherapy combination (Huh-7 xenograft tumor; 10 mg/kg p.o. once daily plus 5 Gy radiation for 4 days): displayed significant tumor growth inhibition compared to radiotherapy or SC-59 alone | SHP-1 phosphatase activity in tumor samples (Huh-7 xenograft tumor; Huh-7 tumors, 10 mg/kg p.o.): induction of SHP-1 phosphatase activity was observed | p-STAT3 in treated tumor samples (Huh-7 xenograft tumor; Huh-7 tumors, 10 mg/kg p.o.): resulted in clear inhibition of p-STAT3 | body weight (Huh-7 xenograft tumor; Huh-7 xenograft, 10 mg/kg p.o.): no significant difference in body weight | phosphatase activity of SHP-1 in cells (SHP-1 [3]): significantly increased the phosphatase activity of SHP-1 in SK-Hep1 cells
